For assay [1], the system named is hMMP-1 promoter reporter gene in Hela cells (GR transcription repression). Description: hMMP1 transcription repression activity, luciferase reporter gene screening system (hMMP1 GR transcription repression test). The class given is cell-based. Particulars: Homo sapiens; for Emax: HeLa, maximum effect value, positive control 1000 nM dexamethasone, read-out: TR (hMMP1 transcription inhibition activity) Effect; for IC50: absolute IC50, HeLa hMMP-1/luciferase cells, 10 nM PMA, 18 h, max concentration 1000 nM, read-out: TR (hMMP1 transcription inhibition activity) IC50. The source says: Human MMP-1 promoter region (containing two AP-1 binding sites and two PEA3 sites, a total of 249bp, GenBank catalog #AF023338) was cloned into the upstream of luciferase reporter gene. The hMMP-1 promoter reporter gene was constructed and transfected into Hela cells so that luciferase production could be easily detected. A stable recombinant hMMP-⅟luciferase cell line was used for the development and validation of this experiment.
• [0377] 1) All the culture media were carefully aspirated, and the cell layer was rinsed gently with an appropriate amount of DPBS, and then aspirated. • [0378] 2) An appropriate amount of 0.05% Typsine EDTA was added and incubated in a CO2 incubator for 3-5 minutes to digest the cells. • [0379] 3) The cells were resuspended with an appropriate amount of cell culture medium. • [0380] 4) The required amount of cells were calculated. The cell concentration was 5x10^3 cells/well. • [0381] 5) The cell suspension was diluted with appropriate cell culture medium. • [0382] 6) The cell suspension was dispensed into a disposable sterile loading slot. • [0383] 7) Inoculated 30µL per well into a 384-well plate. • [0384] 8) The cell plate was placed in a 37° C. 5% CO2 incubator for 18-24 hours.
The final DMSO concentration was 0.1%. PMA needs to be protected from light during use.
hMMP1 GR transcription repression activity test • [0395] 1) Inoculated cells: Fresh cells were inoculated into 384 white experimental plates at 5x10^3 cells/30µL/well, and incubated in a 5% CO2 incubator at 37° C. for 24 hours. • [0396] 2) Compound preparation: The compound plate was prepared before the experiment, and the reference compound (dexamethasone) and the tested compound of 10x concentration were prepared. Finally, the experimental plate of 10× concentration compound was obtained. • [0397] 3) Added compound: 3.3 µL of 10x compound was transferred with Bravo and added to cell plate. Incubated for 18 hours in a 5% CO2 incubator at 37° C. • [0398] 4) 30 µL of Bright-Glo fluorescent detection reagent was transferred to the cell plate. • [0399] 5) Centrifugal incubation for 2 minutes. • [0400] 6) The fluorescence value was measured with the Envision plate reader.
Positive Control: 10 nM PMA + 1000 nM dexamethasone (0.1% DMSO)
Negative control: 10 nM PMA (0.1% DMSO)
(§1) Test compound: Maximum concentration of 1000 nM, 4-fold dilution, 10 wells in total, repeated.
(§2) Dexamethasone: Maximum concentration of 1000 nM, 4-fold dilution, 10 wells in total, repeated.
The graphing software GraphPad Prism5 was used to create the concentration curves of the test compounds and calculate the IC50 values.
In general terms: Reporter assays use an easily measured gene product as a stand-in for the process of interest.

Assay [2] deals with MMTV promoter luciferase reporter in HeLa cell line (GR transcription activation). As to the kind of experiment: MMTV transcription activation activity, luciferase reporter gene screening system (MMTV_GR transcription activation experiment). The class given is cell-based. Particulars: Homo sapiens; for Emax: HeLa, maximum effect value, positive control 1000 nM dexamethasone, read-out: TA (MMTV transcription activation activity) Effect; for EC50: absolute EC50, HeLa MMTV-luciferase cells, 18 h, max concentration 1000 nM, read-out: TA (MMTV transcription activation activity) EC50.
Text: The promoter of mouse mammary tumor virus (MMTV) contains specific binding sites for activating GRs (GREs). To determine the activity of the compounds, a reporter gene (luciferase) was inserted after the MMTV promoter, and this construct was expressed in a stable manner in the genome of the HeLa cell line. MMTV promoter was activated by the test compounds to induce the expression of luciferase, and its activity was detected by luminescence measurement.
• [0442] 1) All the culture media were carefully aspirated, the cell layer was rinsed gently with an appropriate amount of DPBS, and then aspirated. • [0443] 2) An appropriate amount of 0.05% Typsine EDTA was added and incubated in a CO2 incubator for 3-5 minutes to digest the cells. • [0444] 3) The cells were resuspended with an appropriate amount of cell culture medium. • [0445] 4) The amount of cells required was calculated, and the cell concentration was 4×10^3 cells/well. • [0446] 5) The cell suspension was diluted with appropriate cell culture medium. • [0447] 6) Cell suspension was dispensed into a disposable sterile loading slot. • [0448] 7) Inoculated 30 µL per well into a 384-well plate. • [0449] 8) The cell plate was placed in a 37° C. 5% CO2 incubator for 18-24 hours.
Compounds were diluted with DMSO to 1 mM, 0.25 mM, 0.0625 mM, 0.015625 mM, 0.0039 mM, 0.0009765 mM, 0.000244 mM, 0.000061 mM, 0.00001526 mM and 0.0000038125 mM, then diluted 25-fold with serum culture medium treated with activated carbon, and finally 4x concentration compound experimental plate was obtained, prepared before use.
The final DMSO experimental concentration was 0.1%.
MMTV_GR transcription activation activity experiment • [0458] 1) Inoculated cells: Fresh cells were inoculated into 384 white transparent bottom experimental plates at 4×10^3 cells/30 µL/well, and incubated at 37° C. 5% CO2 incubator for 24 hours. • [0459] 2) Compound preparation: The compound plate was prepared before the experiment, and the reference compound (dexamethasone) and the test compound of 4x concentration were prepared. Finally, the experimental plate of 4x concentration compound was obtained. • [0460] 3) Added compound: 10 µL of 4x compound was transferred with Bravo and added to cell plate. Incubated for 18 hours in a 37° C. 5% CO2 incubator. • [0461] 4) 30 µL of Bright-Glo fluorescent detection reagent was transferred to the cell plate. • [0462] 5) Centrifugal incubation for 2 minutes. • [0463] 6) The fluorescence value was measured with the Envision plate reader.
Positive control: 1000 nM dexamethasone (0.1% DMSO)
Negative control: 0.1% DMSO
as §1, §2
The graphing software GraphPad Prism5 was used to create the concentration curves of the tested compounds and calculate the IC50 values.

The structures appear in SMILES notation.

For the compound `CC(C)[C@H](NC(=O)C(C)(F)F)[C@H](Oc1ccc2c(cnn2-c2ccc3c(c2)CCO3)c1)c1ccccc1` [WX005], in assay [1], the Emax is 70.7% and the IC50 (usually the concentration that gives 50% inhibition) is 6.75 nM.

`CC(C)[C@H](NC(=O)C(C)(F)F)[C@H](Oc1ccc2c(cnn2-c2ccc3c(c2)CCCO3)c1)c1ccccc1` [WX006]: in assay [1], the Emax stood at 73% and the IC50 was determined as 79.2 nM.

Turning to `CC(C)[C@H](NC(=O)C(C)(F)F)[C@H](Oc1ccc2c(cnn2-c2ccc3ncccc3c2)c1)c1ccccc1` [WX007], in assay [1], the Emax is 63.6% and the IC50 was found to be 121 nM.

For `CC(C)[C@H](NC(=O)C(C)(F)F)[C@H](Oc1ccc2c(cnn2-c2ccc3c(c2)OCO3)c1)c1ccccc1` [WX008], in assay [1], the Emax stood at 91.4% and the IC50 was determined as 58.9 nM.

On to `C[C@H](NC(=O)C(C)(F)F)[C@H](Oc1ccc2c(cnn2-c2ccc3nccn3c2)c1)c1ccccc1` [WX012], for which, in assay [2], the Emax came out at 103% and the half-maximal effective concentration (EC50) – broadly, the concentration that produces a half-maximal response – turned out to be 0.019 nM.

For `CC(C)[C@H](NC(=O)C(C)(F)F)[C@H](Oc1ccc2c(cnn2-c2ccc3nnnn3c2)c1)c1ccccc1` [WX024], in assay [1], the Emax worked out at 54.5% and the IC50 came to 32.5 nM. For the same compound, in assay [2], the Emax is 31.5% and the EC50 is 78.2 nM.

Turning to `CC(C)[C@H](NC(=O)C(C)(F)F)[C@H](Oc1ccc2c(cnn2-c2cn3cnnc3cn2)c1)c1ccccc1` [WX025], in assay [1], the Emax amounted to 76.1% and the IC50 came to 28.4 nM.

For `CC(C)[C@H](NC(=O)C(C)(F)F)[C@H](Oc1ccc2c(cnn2-c2cnc3cnccn23)c1)c1ccccc1` [WX027], in assay [1], the Emax came to 79% and the IC50 was determined as 70.6 nM.

With `C[C@H](NC(=O)C(C)(F)F)[C@H](Oc1ccc2c(cnn2-c2ccn3cnnc3c2)c1)c1cc(F)cc(F)c1` [WX029], in assay [1], the Emax is 93.8% and the IC50 came to 13.9 nM. In assay [2], the Emax was 62.9% and the EC50 was determined as 21.4 nM.

Turning to `CC(C)[C@H](NC(=O)C(C)(F)F)[C@H](Oc1ccc2c(cnn2-c2ccc3n[nH]c(=O)n3c2)c1)c1ccccc1` [WX031], in assay [1], the Emax came to 54.4% and the 50% inhibitory concentration (IC50) is 42.7 nM.

Take `CC(C)[C@H](NC(=O)C(C)(F)F)[C@H](Oc1ccc2c(cnn2-c2ccc3nn(C)c(=O)n3c2)c1)c1ccccc1` [WX032]: in assay [1], the Emax is 57.4% and the IC50 came to 56.6 nM.

As to `CC(C)[C@H](NC(=O)C(C)(F)F)[C@H](Oc1ccc2c(cnn2-c2ccc3noc(=O)n3c2)c1)c1ccccc1` [WX033], in assay [1], the Emax stood at 71.8% and the IC50 was 11.6 nM.

On to `C[C@H](NC(=O)C(C)(F)F)[C@H](Oc1ccc2c(cnn2-c2ccc3[nH]c(=O)oc3c2)c1)c1cc(F)cc(F)c1` [WX036], for which, in assay [1], the Emax was 92.8% and the IC50 was found to be 0.905 nM. Moreover, in assay [2], the Emax amounted to 80.1% and the concentration giving a half-maximal response (EC50) is 2.31 nM.

In the case of `Cc1nnc2ccc(-n3ncc4cc(O[C@H](c5cc(F)cc(F)c5)[C@H](C)NC(=O)C(C)(F)F)ccc43)cn12` [WX037], in assay [1], the Emax came to 87.8% and the IC50 was found to be 5.66 nM. Moreover, in assay [2], the Emax was determined as 73% and the EC50 was 12.6 nM.

Consider `CC(C)[C@H](NC(=O)C(C)(F)F)[C@H](Oc1ccc2c(cnn2-c2cnn(C)c2)c1)c1cc(F)cc(F)c1` [WX042], for which, in assay [1], the Emax is 89% and the IC50 worked out at 1.38 nM. In assay [2], the Emax was determined as 43.5% and the concentration giving a half-maximal response (EC50) is 3.06 nM.

As for `CC(C)[C@H](NC(=O)C(C)(F)F)[C@H](Oc1ccc2c(cnn2-c2cnn(C)c2)c1)c1ccccc1` [WX045], in assay [1], the Emax worked out at 73.6% and the IC50 was determined as 6.74 nM. For the same compound, in assay [2], the Emax is 55.6% and the EC50 turned out to be 12.9 nM.

As to `C[C@H](NC(=O)C(C)(F)F)[C@H](Oc1ccc2c(cnn2-c2cscn2)c1)c1ccccc1` [WX052], in assay [1], the Emax is 92.5% and the half-inhibitory concentration (IC50) was determined as 0.97 nM. Further, in assay [2], the Emax was found to be 57.8% and the EC50 is 3.37 nM.
